In PMC3742014 (Journal of medicinal chemistry, 2010):

Experiments:
human MTAP = target: T1, human MTAP (Homo sapiens, UniProt Q13126); type: biochemical; conditions: for Km/Ki ratio for human MTAP: Km of MTA over Ki of the inhibitor
T1 sequence (Q13126 1-283): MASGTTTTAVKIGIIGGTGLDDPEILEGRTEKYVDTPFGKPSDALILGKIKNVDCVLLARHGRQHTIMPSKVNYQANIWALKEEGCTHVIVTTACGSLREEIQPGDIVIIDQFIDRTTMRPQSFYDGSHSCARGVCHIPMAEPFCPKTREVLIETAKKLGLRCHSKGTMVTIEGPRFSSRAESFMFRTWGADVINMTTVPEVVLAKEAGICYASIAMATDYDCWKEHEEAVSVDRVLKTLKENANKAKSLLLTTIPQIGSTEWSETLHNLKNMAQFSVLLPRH

E. coli MTAN = E. coli MTAN (Escherichia coli, UniProt P0AF12); assay: Inhibition of E. coli MTAN, xanthine oxidase-coupled enzyme assay; type: biochemical; conditions: Km of MTA over Ki of the inhibitor

Better competitor for the catalytic site of human MTAP than for E. coli MTAN, factor (human MTAP; from the Km/Ki ratios)	SMILES	Km/Ki ratio for E. coli MTAN (E. coli MTAN)	Km/Ki ratio for human MTAP (human MTAP)
6	CC[C@H]1CN(Cc2c[nH]c3c(N)ncnc23)C[C@@H]1O (racemic) [(±)-28, (±)-trans-1-[(9-Deaza-adenin-9-yl)methyl]-4-ethyl-3-hydroxypyrrolidine]	512	–
–	C=CC[C@H]1CN(Cc2c[nH]c3c(N)ncnc23)C[C@@H]1O (racemic) [(±)-41, (±)-trans-4-Allyl-1-[(9-deaza-adenin-9-yl)methyl]-3-hydroxypyrrolidine]	1228	1759
–	C=C[C@H]1CN(Cc2c[nH]c3c(N)ncnc23)C[C@@H]1O (racemic) [(±)-40, (±)-trans-1-[(9-Deaza-adenin-9-yl)methyl]-3-hydroxy-4-vinylpyrrolidine]	662	1649
–	Nc1ncnc2c(CN3C[C@H](CCCSCc4ccccc4)[C@@H](O)C3)c[nH]c12 (racemic) [(±)-57, (±)-trans-4-[3-(Benzylthio)propyl]-1-[(9-deaza-adenin-9-yl)methyl]-3-hydroxypyrrolidine]	7963	74
